Activity calls are given as the source filed them.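 Rule for the calls: active = half-inhibiting concentration IC50 at or below 10 µM; inactive = IC50 above 10 µM.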
Target: Female germline-specific tumor suppressor gld-1 (Caenorhabditis elegans) (UniProt Q17339)
Assay: C. elegans gld-1 RNA interaction inhibition curves – biochemical, fluorescence polarization, IC50, powder samples, late-stage follow-up (AID 488797)
Conditions: GLD-1 / FL-TGE RNA binding

Sequence of Female germline-specific tumor suppressor gld-1 (Caenorhabditis elegans) (Q17339 whole entry, looked up): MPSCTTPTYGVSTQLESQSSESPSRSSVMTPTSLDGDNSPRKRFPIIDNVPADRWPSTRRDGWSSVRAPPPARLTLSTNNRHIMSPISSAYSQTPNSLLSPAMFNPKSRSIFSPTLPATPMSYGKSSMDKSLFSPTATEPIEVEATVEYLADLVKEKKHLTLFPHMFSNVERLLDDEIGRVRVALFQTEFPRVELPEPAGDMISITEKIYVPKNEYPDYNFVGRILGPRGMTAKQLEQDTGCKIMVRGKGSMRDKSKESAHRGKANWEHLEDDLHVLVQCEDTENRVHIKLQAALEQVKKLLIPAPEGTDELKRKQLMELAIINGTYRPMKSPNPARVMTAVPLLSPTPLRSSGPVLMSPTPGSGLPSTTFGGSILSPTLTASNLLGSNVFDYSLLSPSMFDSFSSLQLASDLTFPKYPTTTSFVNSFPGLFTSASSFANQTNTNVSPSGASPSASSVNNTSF

Structure (SMILES)	IC50
CC1=CC(=O)c2c(O)ccc(O)c2C1=O	5.67 µM
Cc1ccc(S(=O)(=O)Nc2cc3c(C(=O)Nc4ccccc4)c(C)oc3c3ccccc23)cc1	1.66 µM
Nc1ccc2nonc2c1[N+](=O)[O-]	> 59.6 µM (inactive)
COc1ccc(C=Nc2c(-c3ccco3)nc3ccccn23)cc1OC	> 59.6 µM (inactive)
CCCCn1c(=O)[nH]c2nc3cc(NC(C)=O)ccc3nc2c1=O	2.62 µM
O=C1C2=C(SCCS2)C(=O)N1CCCO	4.73 µM
COc1ccc(/C=C(\CC(=O)O)c2nc3ccccc3s2)cc1O	2.17 µM
CCN(CC)S(=O)(=O)c1ccc(N2CCCC2)c(NS(=O)(=O)c2ccc(F)cc2)c1	inactive
O=c1[nH]c2cc3ccccc3cc2nc1C(F)(F)F	2.5 µM
O=c1[nH]c(=O)c2nc3ccccc3nc2[nH]1	inactive
CCOC(=O)c1c(C)oc2c1cc(NS(=O)(=O)c1ccc(C)cc1)c1ccccc12	> 59.6 µM (inactive)
Cc1ccc(S(=O)(=O)Nc2cc3c(C(=O)Nc4ccccc4)c(C)oc3c3ccccc23)c(C)c1	1.14 µM
O=C(CN1C(=O)NC2(CCCCC2)C1=O)Oc1ccc2c(C(F)(F)F)cc(=O)oc2c1	5.62 µM
Nc1c(O)ccc2c1C(=O)c1ccccc1C2=O	4.17 µM
Nc1ccc(O)c2c1C(=O)c1ccccc1C2=O	3 µM

Source: PubChem BioAssay AID488797 (The Scripps Research Institute Molecular Screening Center, 2010)
